# Results published in PubChem BioAssay (NCI).
#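 Exposure lasted 48 hours, with cells grown in 96-well plates and compounds tested at five concentrations. Abbreviation: GI50, concentration required for 50% inhibition of growth. TGI: total growth inhibition.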
# What was measured:
# Test in all cases: NCI tumour cell line growth inhibition, 48 h
# ACHN renal = system: ACHN renal
# LOX IMVI melanoma = system: LOX IMVI melanoma
# SF-295 CNS = system: SF-295 CNS
# SNB-75 CNS = system: SNB-75 CNS
# UACC-62 melanoma = system: UACC-62 melanoma
# A498 renal = system: A498 renal
# MDA-MB-231 breast = system: MDA-MB-231 breast
# NCI-H460 lung = system: NCI-H460 lung
# PC-3 prostate = system: PC-3 prostate
# SK-MEL-5 melanoma = system: SK-MEL-5 melanoma
SMILES,TGI (ACHN renal),TGI (LOX IMVI melanoma),TGI (SF-295 CNS),TGI (SNB-75 CNS),TGI (UACC-62 melanoma),TGI (A498 renal),TGI (MDA-MB-231 breast),TGI (NCI-H460 lung),TGI (PC-3 prostate),TGI (SK-MEL-5 melanoma),GI50 (A498 renal),GI50 (ACHN renal),GI50 (LOX IMVI melanoma),GI50 (NCI-H460 lung),GI50 (SF-295 CNS),GI50 (SK-MEL-5 melanoma),GI50 (UACC-62 melanoma),GI50 (MDA-MB-231 breast),GI50 (SNB-75 CNS),GI50 (PC-3 prostate)
Cc1cccc(NC(=O)CC#N)c1Cl,> 100 µM,> 100 µM,> 100 µM,> 100 µM,> 100 µM,–,–,–,–,–,–,–,–,–,–,–,–,–,–,–
COc1ccc(CC2C3=C(CCCC3)CCN2C)cc1 (centres undefined),> 100 µM,> 100 µM,> 100 µM,> 100 µM,> 100 µM,> 100 µM,> 100 µM,> 100 µM,> 100 µM,> 100 µM,–,–,–,–,–,–,–,–,–,–
O=[N+]([O-])c1ccc(-c2cn(-c3ccc(Cl)cc3)cn2)cc1,> 100 µM,> 100 µM,36.9 µM,35.2 µM,> 100 µM,> 100 µM,> 100 µM,> 100 µM,> 100 µM,> 100 µM,–,–,–,–,–,–,–,–,–,–
CC(Oc1ccc2cc(C(=O)c3ccccc3)c(=O)oc2c1)C(=O)O (centres undefined),> 100 µM,> 100 µM,> 100 µM,> 100 µM,> 100 µM,> 100 µM,–,> 100 µM,–,> 100 µM,–,–,–,–,–,–,–,–,–,–
Cc1ccc(C2=C(c3ccccc3)C(O)(c3ccc(C)cc3)C(c3ccccc3)=C2c2ccc(C)cc2)cc1,> 100 µM,> 100 µM,> 100 µM,–,> 100 µM,> 100 µM,–,> 100 µM,–,> 100 µM,–,–,–,–,–,–,–,–,–,–
O=C([O-])c1ccccc1Nc1ccccc1[O-].[Ni+3].[OH3+].[OH3+].[OH3+],> 100 µM,> 100 µM,> 100 µM,–,> 100 µM,> 100 µM,–,> 100 µM,–,> 100 µM,> 100 µM,> 100 µM,> 100 µM,> 100 µM,> 100 µM,> 100 µM,> 100 µM,–,–,–
CCN(CC)CCOc1ccc(C(=C2CCCCC2)c2ccc(OCCN(CC)CC)cc2)cc1,3.18 µM,2.69 µM,3.3 µM,2.94 µM,–,3.8 µM,–,2.94 µM,–,2.95 µM,–,–,–,–,–,–,–,–,–,–
CC(=O)OCC1OC(Sc2ccccn2)C=CC1OC(C)=O (centres undefined),> 100 µM,> 100 µM,> 100 µM,> 100 µM,> 100 µM,> 100 µM,–,–,–,> 100 µM,–,–,–,–,–,–,–,–,–,–
c1ccc(C2N3CCCCC3[C@@H]3c4[nH]c5ccccc5c4CCN23)cc1 (some centres undefined),> 100 µM,–,> 100 µM,> 100 µM,> 100 µM,63.6 µM,–,> 100 µM,–,> 100 µM,–,–,–,–,–,–,–,–,–,–
O=c1[nH]c(/C=C(\O)c2ccncc2)nc2ccccc12,> 100 µM,–,> 100 µM,> 100 µM,> 100 µM,> 100 µM,–,> 100 µM,–,> 100 µM,–,–,–,–,–,–,–,–,–,–
CCC(/C(=N\Nc1c(Cl)cc(Cl)cc1Cl)c1ccccc1)n1ccnc1C (centres undefined),19.5 µM,26.8 µM,24.7 µM,29.5 µM,36.7 µM,29.2 µM,–,29.4 µM,–,21.2 µM,–,–,–,–,–,–,–,–,–,–
CN(C)CCC1(C2=CCCC2)CC/C(=C\c2ccccc2)C1=O (centres undefined),28.6 µM,31.3 µM,33.6 µM,35.9 µM,26.6 µM,29.1 µM,–,31.3 µM,–,27.8 µM,–,–,–,–,–,–,–,–,–,–
Oc1cc2c(cc1O)-c1[nH]ncc1CC2,> 100 µM,> 100 µM,> 100 µM,70.5 µM,90.4 µM,95.8 µM,–,> 100 µM,–,> 100 µM,–,–,–,–,–,–,–,–,–,–
C[C@]12CC[C@H]3[C@@H](C[C@@H]4N=C(c5ccc(O)cc5)S[C@@]45C[C@H](O)CC[C@]35C)[C@@H]1CC[C@@H]2O,> 100 µM,14.6 µM,2.03 µM,25.7 µM,7.64 µM,21.3 µM,32.8 µM,> 100 µM,–,13.1 µM,3.51 µM,7.55 µM,2.67 µM,4.94 µM,0.413 µM,3.15 µM,2.43 µM,6.98 µM,1840 nM,–
COC(=O)C(Cc1nc2ccccc2[nH]c1=O)C(=O)C(=O)Nc1ccc(OC)cc1[N+](=O)[O-] (centres undefined),> 100 µM,> 100 µM,> 100 µM,–,> 100 µM,–,–,> 100 µM,–,> 100 µM,–,–,–,–,–,–,–,–,–,–
O=C(c1ccc2c3c(ccc(C(=O)C(F)(F)F)c13)CC2)C(F)(F)F,> 100 µM,> 100 µM,> 100 µM,> 100 µM,> 100 µM,> 100 µM,–,> 100 µM,–,–,–,–,–,–,–,–,–,–,–,–
CC([O-])C(=O)[O-].NCC1CCC1CN.[Pt+4] (centres undefined),> 10 µM,> 10 µM,> 10 µM,> 10 µM,> 10 µM,–,> 10 µM,> 10 µM,> 10 µM,> 10 µM,–,6.19 µM,> 10 µM,> 10 µM,> 10 µM,7.41 µM,6.87 µM,> 10 µM,> 10000 nM,> 10 µM
O=C1C(N2C(=O)c3ccccc3C2=O)CN1C(COCc1ccccc1)c1ccc(OCc2ccccc2)cc1 (centres undefined),> 100 µM,> 100 µM,> 100 µM,> 100 µM,> 100 µM,> 100 µM,–,> 100 µM,–,> 100 µM,–,–,–,–,–,–,–,–,–,–
COc1ccc(C(=O)O)c(Cc2ccc3ccccc3c2)c1,> 100 µM,> 100 µM,> 100 µM,> 100 µM,> 100 µM,> 100 µM,–,> 100 µM,–,> 100 µM,–,–,–,–,–,–,–,–,–,–
CSc1ccc2c(cc1=O)[C@@H](NC(=O)c1ccc(F)cc1)CCc1cc(O)c(O)c(O)c1-2,> 100 µM,> 100 µM,> 100 µM,> 100 µM,> 100 µM,> 100 µM,–,> 100 µM,–,> 100 µM,–,–,–,–,–,–,–,–,–,–
CC(O[Si](C)(C)C)C1C=CC(C)n2c(=O)n(-c3ccccc3)c(=O)n21 (centres undefined),–,–,> 100 µM,–,> 100 µM,–,–,–,–,> 100 µM,–,–,–,–,–,–,–,–,–,–
CCN(CC(COc1ccc2c(c1)[n+]([O-])nc(N)[n+]2[O-])OC(C)=O)C(C)=O (centres undefined),> 100 µM,> 100 µM,> 100 µM,> 100 µM,> 100 µM,> 100 µM,> 100 µM,–,> 100 µM,> 100 µM,–,–,–,–,–,–,–,–,–,–
CCC/C(=N\NC(=O)c1cc2ccccc2cc1O)C(CC)C(=O)CCC(=O)N(Cc1ccccc1)Cc1ccccc1 (centres undefined),> 100 µM,> 100 µM,> 100 µM,> 100 µM,70 µM,> 100 µM,–,> 100 µM,–,60.9 µM,–,–,–,–,–,–,–,–,–,–
